Results as given in publication PMC6277545, “Structural Basis for the Limited Response to Oxidative and Thiol-Conjugating Agents by Triosephosphate Isomerase From the Photosynthetic Bacteria Synechocystis” (Frontiers in Molecular Biosciences, 2018).

Key:
Type in all cases: biochemical
SyTPI [1] = target: T1, SyTPI (Synechocystis sp. PCC 6803, UniProt Q59994); assay: residual activity after […] h incubation with reagent, coupled assay; conditions: read-out: % activity at 0.5 mM
T1 construct: gene tpiA; full length, codon-optimised, E. coli BL21(DE3) delta-tpi; His tag cut by PreScission, extra Gly-Pro-His before Met1; homodimer 54 kDa

AtpdTPI = target: T2, AtpdTPI (Arabidopsis thaliana, UniProt Q9SKP6); assay: as above; conditions: read-out: concentration giving 50% of original activity
T2 construct: gene TIM; expression not described here

AtcTPI = target: T3, AtcTPI (Arabidopsis thaliana, UniProt P48491); assay: as above; conditions: read-out: concentration giving 50% of original activity
T3 construct: gene CTIMC; cytosolic isoform, purified dimer; expression not described here

SyTPI [2] = target: T1, SyTPI; assay: residual activity after […] min incubation, coupled assay
HsTPI [3] = target: T4, HsTPI (Homo sapiens, UniProt P60174, L109T/S106T/V102Y); assay: activity with / without ornidazole after […] h
T4 construct: gene TPI1; source and expression not described; dimer

HsTPI [4] = target: T5, HsTPI (Homo sapiens, UniProt P60174); assay: residual activity after […] min incubation, coupled assay
T5 construct: gene TPI1; source and expression not described; dimer
T5 sequence (P60174 2-249): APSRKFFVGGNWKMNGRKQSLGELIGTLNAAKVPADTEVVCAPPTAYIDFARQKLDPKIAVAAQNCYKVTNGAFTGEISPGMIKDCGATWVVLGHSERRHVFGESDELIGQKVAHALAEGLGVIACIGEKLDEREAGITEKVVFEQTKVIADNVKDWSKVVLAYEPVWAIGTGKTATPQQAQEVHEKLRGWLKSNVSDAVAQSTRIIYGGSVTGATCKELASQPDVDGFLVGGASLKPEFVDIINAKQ

T1 sequence (Q59994 whole entry): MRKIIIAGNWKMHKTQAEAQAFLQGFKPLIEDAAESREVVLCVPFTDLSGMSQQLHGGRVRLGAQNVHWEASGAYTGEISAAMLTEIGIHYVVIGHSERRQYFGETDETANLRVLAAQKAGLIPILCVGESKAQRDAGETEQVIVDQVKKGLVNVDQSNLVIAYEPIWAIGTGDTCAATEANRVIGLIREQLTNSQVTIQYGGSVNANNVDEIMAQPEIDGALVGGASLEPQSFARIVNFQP
T4 sequence (P60174 2-249 V102Y/S106T/L109T): as the sequence (P60174 2-249) above, with V101Y, S105T, L108T counted along it
T3 sequence (P48491 whole entry, canonical isoform): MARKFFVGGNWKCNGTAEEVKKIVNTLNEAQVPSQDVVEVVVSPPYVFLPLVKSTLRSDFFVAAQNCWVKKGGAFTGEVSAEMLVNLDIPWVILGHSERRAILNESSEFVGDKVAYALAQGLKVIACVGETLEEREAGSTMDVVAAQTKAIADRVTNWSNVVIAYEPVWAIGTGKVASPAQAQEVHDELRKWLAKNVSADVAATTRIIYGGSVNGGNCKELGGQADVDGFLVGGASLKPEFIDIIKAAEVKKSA
T2 sequence (Q9SKP6 60-315 limits assumed): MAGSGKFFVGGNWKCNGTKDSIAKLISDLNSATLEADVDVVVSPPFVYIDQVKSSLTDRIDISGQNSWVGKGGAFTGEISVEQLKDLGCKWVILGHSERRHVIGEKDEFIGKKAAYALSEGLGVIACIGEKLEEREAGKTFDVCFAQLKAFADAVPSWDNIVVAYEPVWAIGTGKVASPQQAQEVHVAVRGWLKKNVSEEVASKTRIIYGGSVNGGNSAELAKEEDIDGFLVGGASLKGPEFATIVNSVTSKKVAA

Row | Structure (SMILES) | activity at 500 µM (SyTPI [1]) | IC50 (AtpdTPI) | IC50 (AtcTPI) | inhibition at 50 µM (SyTPI [2]) | activity at 50 µM (HsTPI [3]) | activity at 50 µM (HsTPI [4])
1 | CSS(C)(=O)=O [S-methyl methanethiosulfonate] | 50% | 18 µM | 0.005 µM | – | – | –
2 | Cc1ncc([N+](=O)[O-])n1CC(O)CCl (stereo not drawn) [ornidazole] | – | – | – | ~80% | ~60% | 90%
